Usually inhibition stands for the relative decrease from the control value, in per cent.

This is an account of results in article PMC4076210, “Discovery of Novel AKT Inhibitors with Enhanced Anti-Tumor Effects in Combination with the MEK Inhibitor” (PLoS ONE, 2014).

Assay in all cases: Kinase panel
What all share (type): biochemical

The target in one experiment is T1, DRAK1(h) (Homo sapiens, UniProt Q9UEE5).
T1 construct: purchased Millipore KinaseProfiler
T1 sequence (Q9UEE5 1-414): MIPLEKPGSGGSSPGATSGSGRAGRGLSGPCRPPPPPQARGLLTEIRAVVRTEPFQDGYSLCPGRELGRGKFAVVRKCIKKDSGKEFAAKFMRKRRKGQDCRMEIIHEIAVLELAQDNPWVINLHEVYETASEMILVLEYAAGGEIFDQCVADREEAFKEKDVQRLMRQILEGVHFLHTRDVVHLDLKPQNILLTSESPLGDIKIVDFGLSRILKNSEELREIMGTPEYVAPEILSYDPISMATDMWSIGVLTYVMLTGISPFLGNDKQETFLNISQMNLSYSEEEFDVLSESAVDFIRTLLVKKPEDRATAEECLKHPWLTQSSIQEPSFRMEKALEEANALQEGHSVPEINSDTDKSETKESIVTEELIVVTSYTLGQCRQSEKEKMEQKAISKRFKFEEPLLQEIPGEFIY

The target in a further experiment is T2, CDK2/cyclinE(h) (Homo sapiens, UniProt P24941).
T2 construct: purchased Millipore KinaseProfiler

For another experiment, the target named is T3, EGFR(h) (Homo sapiens, UniProt P00533).
T3 construct: purchased Millipore KinaseProfiler

For another experiment, the target named is T4, Txk(h) (Homo sapiens, UniProt P42681).
T4 construct: purchased Millipore KinaseProfiler
T4 sequence (P42681 1-527): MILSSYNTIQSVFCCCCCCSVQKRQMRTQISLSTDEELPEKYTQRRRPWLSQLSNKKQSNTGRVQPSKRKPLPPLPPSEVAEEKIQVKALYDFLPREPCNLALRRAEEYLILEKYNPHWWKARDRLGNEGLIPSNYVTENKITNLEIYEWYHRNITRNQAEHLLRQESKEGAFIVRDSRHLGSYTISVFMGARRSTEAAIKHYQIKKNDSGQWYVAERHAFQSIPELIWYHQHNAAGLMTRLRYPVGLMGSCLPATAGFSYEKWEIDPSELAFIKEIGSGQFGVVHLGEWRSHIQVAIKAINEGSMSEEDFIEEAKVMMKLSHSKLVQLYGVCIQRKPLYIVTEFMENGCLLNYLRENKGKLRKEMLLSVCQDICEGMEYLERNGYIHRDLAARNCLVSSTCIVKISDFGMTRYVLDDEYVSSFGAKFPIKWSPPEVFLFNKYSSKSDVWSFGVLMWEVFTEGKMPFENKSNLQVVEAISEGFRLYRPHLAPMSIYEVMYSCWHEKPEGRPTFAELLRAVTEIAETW

The target of the next experiment is T5, mTOR/FKBP12(h) (Homo sapiens, UniProt P42345).
T5 construct: purchased Millipore KinaseProfiler

The target in another experiment is T6, MKK6(h) (Homo sapiens, UniProt P52564).
T6 construct: purchased Millipore KinaseProfiler
T6 sequence (P52564 1-334): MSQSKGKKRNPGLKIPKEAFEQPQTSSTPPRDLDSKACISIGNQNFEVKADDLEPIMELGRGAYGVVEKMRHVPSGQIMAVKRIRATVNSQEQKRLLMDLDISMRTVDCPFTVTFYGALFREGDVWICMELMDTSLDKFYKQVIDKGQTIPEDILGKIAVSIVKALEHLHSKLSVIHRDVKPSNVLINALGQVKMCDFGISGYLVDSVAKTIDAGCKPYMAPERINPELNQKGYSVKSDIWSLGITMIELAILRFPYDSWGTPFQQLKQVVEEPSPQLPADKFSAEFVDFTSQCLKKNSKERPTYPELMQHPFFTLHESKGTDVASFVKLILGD

A further experiment addresses T7, GSK3α(h) (Homo sapiens, UniProt P49840).
T7 construct: purchased Millipore KinaseProfiler

A further experiment concerns the target T8, MKK7β(h) (Homo sapiens, UniProt O14733).
T8 construct: purchased Millipore KinaseProfiler
T8 sequence (O14733 1-419): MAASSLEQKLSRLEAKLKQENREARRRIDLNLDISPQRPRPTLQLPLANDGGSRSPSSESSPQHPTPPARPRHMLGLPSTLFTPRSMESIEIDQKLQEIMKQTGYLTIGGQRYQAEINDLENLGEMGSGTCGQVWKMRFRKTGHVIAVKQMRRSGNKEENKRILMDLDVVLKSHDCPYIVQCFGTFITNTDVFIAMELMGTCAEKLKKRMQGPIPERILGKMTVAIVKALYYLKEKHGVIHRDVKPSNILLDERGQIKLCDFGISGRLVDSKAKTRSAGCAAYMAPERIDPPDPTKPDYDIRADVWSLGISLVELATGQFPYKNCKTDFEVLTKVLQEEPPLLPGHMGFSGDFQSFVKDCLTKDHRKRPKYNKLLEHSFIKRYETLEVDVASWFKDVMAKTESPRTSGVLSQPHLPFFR

Another experiment has as its target T9, Blk(m) (Mus musculus, UniProt P16277).
T9 construct: purchased Millipore KinaseProfiler

Another experiment addresses T10, DYRK2(h) (Homo sapiens, UniProt Q92630).
T10 construct: purchased Millipore KinaseProfiler
T10 sequence (Q92630 1-601): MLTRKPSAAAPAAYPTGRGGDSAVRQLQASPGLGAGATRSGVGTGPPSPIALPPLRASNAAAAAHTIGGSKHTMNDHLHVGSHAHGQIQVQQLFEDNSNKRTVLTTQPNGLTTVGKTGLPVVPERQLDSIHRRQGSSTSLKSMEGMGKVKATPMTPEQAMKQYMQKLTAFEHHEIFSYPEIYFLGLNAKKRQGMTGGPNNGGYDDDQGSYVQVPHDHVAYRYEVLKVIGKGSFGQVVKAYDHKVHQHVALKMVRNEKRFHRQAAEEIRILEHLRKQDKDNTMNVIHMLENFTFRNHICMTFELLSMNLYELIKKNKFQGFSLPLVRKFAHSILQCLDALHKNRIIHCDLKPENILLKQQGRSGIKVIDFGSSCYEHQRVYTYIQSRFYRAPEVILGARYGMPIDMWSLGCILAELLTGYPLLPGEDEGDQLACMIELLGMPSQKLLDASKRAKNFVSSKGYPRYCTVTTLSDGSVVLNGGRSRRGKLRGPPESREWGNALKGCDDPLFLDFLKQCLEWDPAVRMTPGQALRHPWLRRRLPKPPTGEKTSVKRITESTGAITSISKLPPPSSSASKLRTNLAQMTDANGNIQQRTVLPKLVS

The target of a further experiment is T11, SIK(h) (Homo sapiens, UniProt P57059).
T11 construct: purchased Millipore KinaseProfiler

Read-outs that look alike come from different tables or passages of the source.

T9 sequence (P16277 2-499 limits assumed): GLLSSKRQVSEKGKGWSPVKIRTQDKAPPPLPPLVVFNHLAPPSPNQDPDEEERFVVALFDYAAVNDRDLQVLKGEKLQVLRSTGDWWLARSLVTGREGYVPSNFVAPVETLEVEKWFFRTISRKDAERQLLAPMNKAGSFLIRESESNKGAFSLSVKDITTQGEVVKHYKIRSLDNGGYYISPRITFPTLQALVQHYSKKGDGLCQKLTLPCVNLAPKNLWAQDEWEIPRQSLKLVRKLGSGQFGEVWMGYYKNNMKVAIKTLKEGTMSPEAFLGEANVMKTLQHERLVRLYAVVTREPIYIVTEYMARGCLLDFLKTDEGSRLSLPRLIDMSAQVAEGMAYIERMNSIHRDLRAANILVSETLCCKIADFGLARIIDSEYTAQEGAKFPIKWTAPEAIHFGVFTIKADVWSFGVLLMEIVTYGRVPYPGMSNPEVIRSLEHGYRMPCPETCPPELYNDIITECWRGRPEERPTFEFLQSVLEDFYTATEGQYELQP
T11 sequence (P57059 whole entry): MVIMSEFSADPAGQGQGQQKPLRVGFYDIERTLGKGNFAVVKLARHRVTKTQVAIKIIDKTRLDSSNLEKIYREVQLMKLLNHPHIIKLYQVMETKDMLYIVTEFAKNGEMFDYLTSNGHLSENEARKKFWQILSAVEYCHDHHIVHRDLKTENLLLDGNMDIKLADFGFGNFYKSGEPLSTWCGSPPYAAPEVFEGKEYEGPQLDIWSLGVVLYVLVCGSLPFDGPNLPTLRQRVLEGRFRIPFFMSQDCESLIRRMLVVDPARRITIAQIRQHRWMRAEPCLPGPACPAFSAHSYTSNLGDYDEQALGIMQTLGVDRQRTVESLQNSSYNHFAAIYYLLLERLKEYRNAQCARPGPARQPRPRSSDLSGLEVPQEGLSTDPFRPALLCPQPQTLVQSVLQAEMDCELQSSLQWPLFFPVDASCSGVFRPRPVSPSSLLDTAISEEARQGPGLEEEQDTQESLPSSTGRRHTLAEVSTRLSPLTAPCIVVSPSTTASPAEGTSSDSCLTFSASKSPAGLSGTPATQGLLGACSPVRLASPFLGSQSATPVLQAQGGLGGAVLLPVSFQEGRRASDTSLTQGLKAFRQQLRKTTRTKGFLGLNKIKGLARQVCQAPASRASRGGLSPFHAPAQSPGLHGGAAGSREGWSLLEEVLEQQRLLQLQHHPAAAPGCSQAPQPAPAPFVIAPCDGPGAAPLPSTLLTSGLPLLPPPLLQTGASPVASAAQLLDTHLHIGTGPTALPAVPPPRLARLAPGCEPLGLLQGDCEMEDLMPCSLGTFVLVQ
T5 sequence (P42345 1362-2549 limits assumed): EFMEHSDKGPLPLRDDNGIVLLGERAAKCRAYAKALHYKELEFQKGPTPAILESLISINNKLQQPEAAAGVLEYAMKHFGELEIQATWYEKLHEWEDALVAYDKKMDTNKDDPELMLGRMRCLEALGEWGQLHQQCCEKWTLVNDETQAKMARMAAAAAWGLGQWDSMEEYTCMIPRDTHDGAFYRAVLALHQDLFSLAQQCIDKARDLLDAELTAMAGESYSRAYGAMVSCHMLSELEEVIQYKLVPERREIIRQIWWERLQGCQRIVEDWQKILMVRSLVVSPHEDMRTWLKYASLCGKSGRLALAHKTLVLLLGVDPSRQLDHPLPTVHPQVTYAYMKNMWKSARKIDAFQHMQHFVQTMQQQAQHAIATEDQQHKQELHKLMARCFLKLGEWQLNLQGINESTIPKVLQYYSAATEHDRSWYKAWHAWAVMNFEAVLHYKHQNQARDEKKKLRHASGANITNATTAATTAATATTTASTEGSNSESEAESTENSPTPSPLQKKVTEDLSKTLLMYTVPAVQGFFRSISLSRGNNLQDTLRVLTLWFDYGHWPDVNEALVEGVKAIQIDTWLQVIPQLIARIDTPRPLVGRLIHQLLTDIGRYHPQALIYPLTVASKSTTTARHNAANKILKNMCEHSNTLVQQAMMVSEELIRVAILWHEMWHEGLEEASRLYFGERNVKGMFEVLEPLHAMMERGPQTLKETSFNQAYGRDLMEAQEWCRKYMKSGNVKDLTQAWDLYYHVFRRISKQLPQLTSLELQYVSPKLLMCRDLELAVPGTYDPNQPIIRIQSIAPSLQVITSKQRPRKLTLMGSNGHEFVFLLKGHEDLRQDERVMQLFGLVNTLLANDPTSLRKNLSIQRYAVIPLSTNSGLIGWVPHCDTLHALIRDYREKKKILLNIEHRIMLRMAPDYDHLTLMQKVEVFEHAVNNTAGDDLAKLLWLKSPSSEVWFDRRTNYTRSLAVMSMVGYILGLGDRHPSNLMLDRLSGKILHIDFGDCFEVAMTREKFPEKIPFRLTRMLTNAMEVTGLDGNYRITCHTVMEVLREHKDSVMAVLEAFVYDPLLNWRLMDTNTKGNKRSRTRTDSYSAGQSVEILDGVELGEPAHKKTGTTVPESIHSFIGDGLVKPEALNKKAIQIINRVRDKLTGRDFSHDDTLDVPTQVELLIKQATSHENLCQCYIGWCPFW
T3 sequence (P00533 25-1210): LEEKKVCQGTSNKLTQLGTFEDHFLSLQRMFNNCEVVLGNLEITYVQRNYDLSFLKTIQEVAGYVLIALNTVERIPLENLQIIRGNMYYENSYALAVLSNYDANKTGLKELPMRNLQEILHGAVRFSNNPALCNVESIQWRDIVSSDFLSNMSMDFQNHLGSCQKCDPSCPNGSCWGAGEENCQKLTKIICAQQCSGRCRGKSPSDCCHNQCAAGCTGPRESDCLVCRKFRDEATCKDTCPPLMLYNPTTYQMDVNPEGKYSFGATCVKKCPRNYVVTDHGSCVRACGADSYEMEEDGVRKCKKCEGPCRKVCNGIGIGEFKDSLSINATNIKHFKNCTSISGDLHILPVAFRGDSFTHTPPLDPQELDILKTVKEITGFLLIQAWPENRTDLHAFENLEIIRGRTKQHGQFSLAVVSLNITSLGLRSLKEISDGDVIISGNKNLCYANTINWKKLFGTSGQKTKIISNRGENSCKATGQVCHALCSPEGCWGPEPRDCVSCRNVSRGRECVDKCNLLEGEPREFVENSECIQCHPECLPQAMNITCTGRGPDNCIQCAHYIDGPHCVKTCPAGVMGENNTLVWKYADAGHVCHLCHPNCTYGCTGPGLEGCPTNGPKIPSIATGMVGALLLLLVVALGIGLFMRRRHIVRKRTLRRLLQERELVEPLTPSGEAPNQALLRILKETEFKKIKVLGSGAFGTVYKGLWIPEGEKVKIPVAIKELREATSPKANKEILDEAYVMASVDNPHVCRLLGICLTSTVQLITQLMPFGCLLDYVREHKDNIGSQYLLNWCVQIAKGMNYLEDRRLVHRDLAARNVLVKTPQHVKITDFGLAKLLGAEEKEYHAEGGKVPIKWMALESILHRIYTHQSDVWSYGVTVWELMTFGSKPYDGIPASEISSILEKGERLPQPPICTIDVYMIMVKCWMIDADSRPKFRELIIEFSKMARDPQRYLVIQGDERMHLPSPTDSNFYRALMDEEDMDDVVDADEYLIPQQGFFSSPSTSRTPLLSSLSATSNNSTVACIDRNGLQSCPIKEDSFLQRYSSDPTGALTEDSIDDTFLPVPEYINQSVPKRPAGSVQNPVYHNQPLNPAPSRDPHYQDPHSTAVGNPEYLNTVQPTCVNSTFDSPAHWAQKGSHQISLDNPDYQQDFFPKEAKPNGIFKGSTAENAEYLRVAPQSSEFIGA
T7 sequence (P49840 whole entry): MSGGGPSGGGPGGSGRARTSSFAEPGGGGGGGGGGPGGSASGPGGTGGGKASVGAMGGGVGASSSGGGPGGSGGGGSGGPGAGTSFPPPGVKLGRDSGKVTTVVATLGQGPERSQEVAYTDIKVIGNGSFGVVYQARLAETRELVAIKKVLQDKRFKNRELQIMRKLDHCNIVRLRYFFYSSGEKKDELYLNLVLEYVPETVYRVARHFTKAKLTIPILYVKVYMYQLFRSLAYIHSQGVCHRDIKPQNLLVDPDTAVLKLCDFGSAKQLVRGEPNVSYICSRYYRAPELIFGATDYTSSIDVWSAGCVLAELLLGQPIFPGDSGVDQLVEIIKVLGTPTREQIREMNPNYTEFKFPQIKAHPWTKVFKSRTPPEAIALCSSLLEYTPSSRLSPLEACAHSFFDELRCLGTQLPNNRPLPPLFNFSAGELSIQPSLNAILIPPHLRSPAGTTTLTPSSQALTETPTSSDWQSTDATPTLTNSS

As to `Cn1ncc(Cl)c1-c1cc(C(=O)N[C@H](CN)Cc2ccc(F)c(F)c2)oc1Cl` [GSK2141795], the inhibition at 0.5 µM was -18% at DRAK1(h) (0.5 µM, read-out: % Inhibition); -2% on CDK2/cyclinE(h) (0.5 µM, read-out: % Inhibition); -42% on EGFR(h) (0.5 µM, read-out: % Inhibition); 11% on Txk(h) (0.5 µM, read-out: % Inhibition); -19% at mTOR/FKBP12(h) (0.5 µM, read-out: % Inhibition); 14% at MKK6(h) (0.5 µM, read-out: % Inhibition). Besides, the inhibition at 0.5 µM is -26% at GSK3α(h) (0.5 µM, read-out: % Inhibition); -13% at MKK7β(h) (0.5 µM, read-out: % Inhibition); -35% on Blk(m) (0.5 µM, read-out: % Inhibition); 16% at DYRK2(h) (0.5 µM, read-out: % Inhibition); -4% at SIK(h) (0.5 µM, read-out: % Inhibition). Besides, the inhibition at 10 µM at DRAK1(h) (10 µM, read-out: % Inhibition) was 24%; at CDK2/cyclinE(h) (10 µM, read-out: % Inhibition), 29%; on EGFR(h) (10 µM, read-out: % Inhibition), -40%; at Txk(h) (10 µM, read-out: % Inhibition), 30%; at mTOR/FKBP12(h) (10 µM, read-out: % Inhibition), -21%; at MKK6(h) (10 µM, read-out: % Inhibition) it was 66%. Moreover, the inhibition at 10 µM at GSK3α(h) (10 µM, read-out: % Inhibition) is -19%; at MKK7β(h) (10 µM, read-out: % Inhibition) it was -30%; at Blk(m) (10 µM, read-out: % Inhibition), 8%; at DYRK2(h) (10 µM, read-out: % Inhibition), 64%; on SIK(h) (10 µM, read-out: % Inhibition), 64%.

On to `Cn1ncc(Cl)c1-c1cc(C(=O)N[C@H](CN)Cc2cccc(F)c2)sc1Cl` [GSK2110183], for which the inhibition at 0.5 µM at DRAK1(h) is 10%; against CDK2/cyclinE(h) it was 3%; on EGFR(h), -4%; on Txk(h), -9%; against mTOR/FKBP12(h) it was 3%; against MKK6(h) it was 6%. The inhibition at 0.5 µM was -2% at GSK3α(h); 12% against MKK7β(h); -12% on Blk(m); 2% at DYRK2(h); -6% against SIK(h). Moreover, the inhibition at 10 µM against DRAK1(h) worked out at 40%; on CDK2/cyclinE(h), 12%; against EGFR(h), 2%; on Txk(h), 15%; against mTOR/FKBP12(h), 5%; against MKK6(h), 36%. In addition, the inhibition at 10 µM against GSK3α(h) was -1%; against MKK7β(h) it was 28%; at Blk(m), 9%; against DYRK2(h) it was 24%; at SIK(h) it was 16%.
